Laboratory results: the NIST ThermoML archive (doi:10.1021/acs.jced.9b00179)
± gives the expanded uncertainty stated by the source.

Legend:
[1] = refractive index (Na D-line) (dimensionless); conditions: 293.15 K; 101.33 kPa; Liquid; Standard Abbe refractometry
[2] = Molar enthalpy of transition or fusion; conditions: Crystal; DSC
[3] = Crystal; DSC

`CCO` [ethanol] showed a refractive index [1] of 1.3613 ± 0.0011.

`CC(C)O` [propan-2-ol] gave a refractive index [1] of 1.3774 ± 0.0011.

In the case of `O=C(O)c1ccccc1` [benzoic acid], the “Molar enthalpy of transition or fusion” value [2] is reported as 4.19 ± 0.43 kcal/mol and the Triple point temperature [3] is reported as 396.8 ± 1 K.

`CCC(C)=O` [butanone] gave a refractive index [1] of 1.379 ± 0.0011.

Molecule `CCCCO` [butan-1-ol] has a refractive index [1] of 1.3986 ± 0.0011.

Molecule `CCCO` [propan-1-ol] has a refractive index [1] of 1.3852 ± 0.001.

For `CC[C@@H]([C@H](C)O)n1ncn(-c2ccc(N3CCN(c4ccc(OC[C@@H]5CO[C@@](Cn6cncn6)(c6ccc(F)cc6F)C5)cc4)CC3)cc2)c1=O` [posaconazole], the “Molar enthalpy of transition or fusion” value [2] was 11.4 ± 1.17 kcal/mol and the Triple point temperature [3] was 444.6 ± 1 K.

In the case of `C[S+](C)[O-]` [dimethyl sulfoxide], the refractive index [1] is reported as 1.4791 ± 0.0011.

With `CN(C)C=O` [dimethylformamide] the refractive index [1] was 1.4303 ± 0.001.

For `CC(C)CO` [2-methyl-1-propanol], the refractive index [1] was 1.3957 ± 0.0011.

For `O` [water], the refractive index [1] was 1.3331 ± 0.001.

For `CCCC(C)=O` [pentan-2-one], the refractive index [1] was 1.3892 ± 0.0011.

For `C[C@@H](c1ncncc1F)[C@](O)(Cn1cncn1)c1ccc(F)cc1F` [voriconazole], the “Molar enthalpy of transition or fusion” value [2] was 6.43 ± 0.645 kcal/mol and the Triple point temperature [3] was 403.4 ± 1 K.
